Laboratory results as given in US20260097083A1, “METHOD FOR PRODUCING PANCREATIC ENDODERM CELLS” (Kyoto University, priority 2022, published 2026).

Tested on: pancreatic endoderm cells derived from human iPS cells
Experiment: Expansion culture of pancreatic endoderm cells with Y-27632
Format: cell-based
Method: FIG. 4-A A schematic diagram illustrating expansion culture of pancreatic endoderm cells with Y-27632 (50 μM). NKX6.1-positive pancreatic endoderm cells were seeded on a plate and cultured in a culture medium containing Y-27632 (50 μM) for one week. After the elapse of one week, the cells were reseeded, and passage and expansion culture were repeated. PDX1^+/NKX6.1^+ pancreatic endoderm cells were produced from iPS cells (585A1 line) or ES cells (KhES-3 line) on a 6-well plate using the method by Toyoda et al. (Toyoda T, et al. Stem Cell Reports 2017). Briefly, the undifferentiated cells above were seeded at 1×10^6/well on a 6-well plate coated with iMatrix-511 silk. The cells were cultured in RPMI to which an S1 culture medium (1×B-27 Supplement, 100 U/ml penicillin/streptomycin, 100 ng/ml activin A, and CHIR99021 (Day 1: 3 μM, Days 2 and 3: 1 μM, and Day 4: 0 μM)) had been added for 4 days, in an S2 culture medium (improved MEM to which 0.5×B-27 Supplement, 100 U/ml penicillin/streptomycin, and 50 ng/ml KGF/FGF7 had been added) for 5 days, and in an S3 culture medium (improved MEM to which 0.5×B-27 Supplement, 100 U/ml penicillin/streptomycin, 50 ng/ml KGF/FGF7, 0.2 μM LDN-193189, 0.1 μM SANT-1, and 10 nM TTNPB had been added) for 2 days. The cells were detached from the 6-well plate using trypsin, and were reseeded on a 6-well plate coated with iMatrix-511 silk at 1.5×10^6/well using the S3 culture medium again. On the next day, the culture medium was changed to an S4 culture medium (improved MEM to which 0.5×B-27 Supplement, 100 U/ml penicillin/streptomycin, 100 ng/ml KGF/FGF7, 50 ng/ml EGF, 10 mM nicotinamide, and 50 μM Y-27632 had been added), and the cells were cultured for 4 days. (1) After the cells produced in clause 1 above were washed with PBS(−), 1 ml of 0.25% trypsin-EDTA was added thereto, and the cells were incubated at 37° C. and 5% CO2 for 5 minutes. (2) The adherent cells were detached through pipetting and were added to a 50-ml centrifuge tube. (3) 4 ml of DMEM (Dulbecco's Modified Eagle Medium)/10% FBS/PS (penicillin-streptomycin) was added to the centrifuge tube. (4) The resulting mixture was centrifuged at 400 G for 3 minutes, and the supernatant was removed. (5) The cells were suspended in improved MEM (containing 10 μM Y-27632, 0.5×B-27 Supplement, and 100 U/ml penicillin/streptomycin), and were counted. (6) When the cells were seeded on a 6-well plate, an amount of the suspension necessary to provide 1×10^6 cells/well was collected and was centrifuged at 400 G for 3 minutes (2×10^5 cells/well for a 24-well plate). (7) After the supernatant was removed, the cells were re-suspended in improved MEM (containing 100 ng/ml KGF, 50 ng/ml EGF, 10 mM nicotinamide, 50 μM Y-27632, 0.5×B-27 Supplement, and 100 U/ml penicillin/streptomycin), the suspension was adjusted to correspond to 2 ml/well, and then the cells were seeded. A 6-well plate to which the cells were to be seeded had been coated in advance by adding a solution formed by mixing 10 μl of iMatrix-511 silk and 1.5 ml of PBS(−) to each well 1 hour before seeding, and incubating the plate at 37° C. and 5% CO2 for 1 hour. (8) On the next day (Day 1), the cells were washed with improved MEM, and then the culture medium was changed to improved MEM (5 ml/well) containing 100 ng/ml KGF, 50 ng/ml EGF, 10 mM nicotinamide, 50 μM Y-27632, 0.5×B-27 Supplement, and 100 U/ml penicillin/streptomycin. (9) The cells were washed with improved MEM 3 days after that (on Day 4), and then the culture medium was changed to the same culture medium as that in the step (7) (5 ml/well). (10) The steps (1) to (7) above were conducted 3 days after that (on Day 7), and the next passage (expansion culture) was conducted. Expansion culture and passage culture were repeated by repeating the steps (8), (9), and (10) from the next day. One round of the passage (expansion culture) corresponded to 7 days (operations above). FIGS. 4-A show the outline of this procedure. […]

[1] = 50 μM, flow cytometry, FIG. 4-E
[2] = 50 μM, immunostaining after expansion culture, FIG. 4-D

**Q.** With `C[C@@H](N)[C@H]1CC[C@H](C(=O)Nc2ccncc2)CC1` [Y-27632] as the compound, how does the “proliferative capacity of the pancreatic endoderm cells (Ki67-positive ratio)” value (50 μM, during expansion culture, FIG. 4-F) read?
**A.** maintained

**Q.** And the Ki67-positive ratio [1]?
**A.** kept

**Q.** What about the “ratio of the pancreatic endoderm cells” value [1] of the same compound?
**A.** kept

**Q.** And the “expression of Ki67” value [2]?
**A.** maintained

**Q.** And the “expression of PDX1 and NKX6.1” value [2]?
**A.** maintained

**Q.** What about the “total number of cells increased by a factor of” value (Y-27632 50 μM, 60 days, FIG. 4-B) of the same compound?
**A.** ≥ 1×10^5

**Q.** What about the “number of PDX1+/NKX6.1+ pancreatic endoderm cells increased by a factor of” value (Y-27632 50 μM, 60 days, FIG. 4-C) of the same compound?
**A.** ≥ 1×10^5

**Q.** What about the “NKX6.1-positive ratio on repeated expansion culture” value (culture medium for expansion culture with Y-27632) of the same compound?
**A.** tended to gradually decrease
